# Measured values from ChEMBL document CHEMBL1201862, “PubChem BioAssay data set” (2004).
#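 Protocol summary: plate cells (96-well), add compound at 5 concentrations, incubate 48 h, interpolate endpoints linearly. Abbreviation: GI50, concentration required for 50% inhibition of growth.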 Activity calls are given as the source filed them. Cut-off read from the data, not from the text of the source: active = GI50 up to about 1.1 µM and inactive = higher.
# Tests used:
# Assay in all cases: NCI tumour cell line growth inhibition, 48 h
# [1] = tested on: 786-0
# [2] = tested on: A498
# [3] = tested on: A549
# [4] = tested on: ACHN
# [5] = tested on: BT-549
# [6] = tested on: CAKI-1
# [7] = tested on: CCRF-CEM
# [8] = tested on: COLO 205
# [9] = tested on: DU-145
# [10] = tested on: EKVX
# [11] = tested on: HCC 2998
# [12] = tested on: HCT-116
# [13] = tested on: HCT-15
# [14] = tested on: HL-60
# [15] = tested on: HOP-62
# [16] = tested on: HOP-92
# [17] = tested on: HT-29
# [18] = tested on: Hs-578T
# [19] = tested on: IGROV-1
# [20] = tested on: K562
# [21] = tested on: KM12
# [22] = tested on: LOX IMVI
# [23] = tested on: M14
# [24] = tested on: MCF7
# [25] = tested on: MDA-MB-231
# [26] = tested on: MDA-MB-435
# [27] = tested on: MDA-N
# [28] = tested on: MOLT-4
# [29] = tested on: NCI-H226
# [30] = tested on: NCI-H23
# [31] = tested on: NCI-H522
# [32] = tested on: NCI/ADR-RES
# [33] = tested on: OVCAR-4
# [34] = tested on: OVCAR-5
# [35] = tested on: OVCAR-8
# [36] = tested on: PC-3
# [37] = tested on: RPMI-8226
# [38] = tested on: SF-268
# [39] = tested on: SF-295
# [40] = tested on: SK-MEL-28
# [41] = tested on: SK-MEL-2
# [42] = tested on: SK-MEL-5
# [43] = tested on: SK-OV-3
# [44] = tested on: SN12C
# [45] = tested on: SNB-19
# [46] = tested on: SNB-75
# [47] = tested on: SR
# [48] = tested on: T47D
# [49] = tested on: TK-10
# [50] = tested on: U-251
# [51] = tested on: UACC-257
# [52] = tested on: UACC-62
# [53] = tested on: UO-31
smiles,measurement,setting,value
COc1cccc(N2C(=O)/C(=C\c3ccccc3)SC2c2cc(OC)c(OC)c(OC)c2)c1 (stereo not drawn),GI50,[1],40.9 µM (inactive)
same,GI50,[2],28.8 µM (inactive)
same,GI50,[3],64.1 µM (inactive)
same,GI50,[4],> 100 µM (inactive)
same,GI50,[5],47.9 µM (inactive)
same,GI50,[6],70 µM (inactive)
same,GI50,[7],37.8 µM (inactive)
same,GI50,[8],39.7 µM (inactive)
same,GI50,[9],41.2 µM (inactive)
same,GI50,[10],44.2 µM (inactive)
same,GI50,[11],32.3 µM (inactive)
same,GI50,[12],30.1 µM (inactive)
same,GI50,[13],44.3 µM
same,GI50,[14],36 µM (inactive)
same,GI50,[15],37.6 µM (inactive)
same,GI50,[16],27.7 µM (inactive)
same,GI50,[17],45.2 µM (inactive)
same,GI50,[18],30.4 µM (inactive)
same,GI50,[19],31.3 µM (inactive)
same,GI50,[20],26.9 µM (inactive)
same,GI50,[21],36.5 µM (inactive)
same,GI50,[22],37.8 µM (inactive)
same,GI50,[23],40.3 µM (inactive)
same,GI50,[24],42.4 µM (inactive)
same,GI50,[25],98.2 µM (inactive)
same,GI50,[26],22.6 µM (inactive)
same,GI50,[27],17.6 µM (inactive)
same,GI50,[28],27.5 µM (inactive)
same,GI50,[29],> 100 µM (inactive)
same,GI50,[30],52.6 µM (inactive)
same,GI50,[31],22.2 µM (inactive)
same,GI50,[32],41.9 µM (inactive)
same,GI50,[33],46.5 µM (inactive)
same,GI50,[34],> 100 µM (inactive)
same,GI50,[35],44.1 µM (inactive)
same,GI50,[36],46.5 µM (inactive)
same,GI50,[37],32.1 µM (inactive)
same,GI50,[38],41.4 µM (inactive)
same,GI50,[39],35.5 µM (inactive)
same,GI50,[40],96.2 µM (inactive)
same,GI50,[41],62.1 µM (inactive)
same,GI50,[42],42.9 µM (inactive)
same,GI50,[43],35.6 µM (inactive)
same,GI50,[44],52 µM (inactive)
same,GI50,[45],77.6 µM (inactive)
same,GI50,[46],18 µM (inactive)
same,GI50,[47],26.3 µM (inactive)
same,GI50,[48],17.4 µM (inactive)
same,GI50,[49],> 100 µM (inactive)
same,GI50,[50],33.3 µM (inactive)
same,GI50,[51],> 100 µM (inactive)
same,GI50,[52],24.1 µM (inactive)
same,GI50,[53],43.2 µM (inactive)
